Source: ChEMBL document CHEMBL4732193, “Design, synthesis, and anti-tumor activities of novel Brevinin-1BYa peptidomimetics” (Bioorg Med Chem Lett, 2021)
Starred links: 1 amine or outer side, 2 acyl side, 3 side chain; linkers in the order of their positions; H or OH if unused. Positions of bridges follow the written chain, without caps; N, C: chain ends. Non-standard residues stand in square brackets, D forms with d. Residues, ends and D or L forms follow the SMILES beside them. Triazole bridges read from a SMILES are 1,4-linked. *: point of attachment. βGlcNAc = CC(=O)N[C@@H]1[C@@H](O)[C@H](O)[C@@H](CO)O[C@H]1*; Abu(4-yl) = O=C([C@H](CC[*:3])N[*:1])[*:2]; Dap(N3) = [N-]=[N+]=NC[C@H](N)C(=O)O; Pra = C#CC[C@H](N)C(=O)O; Dap = NC[C@H](N)C(=O)O

Legend:
[1] = test system: alpha chymotrypsin; test: Stability of the compound assessed as alpha chymotrypsin (unknown origin)-mediated proteolysis by measuring degradation half life measured for 24 hrs; type: ADME, Homo sapiens
[2] = Stability of the compound in aqueous DTT solution assessed as degradation half life measured for 48 hrs; type: physicochemical
[3] = test system: LNCaP C4-2B; test: Anticancer activity against human LNCaP C4-2B cells assessed as cell growth inhibition by CCK8 assay; type: functional, cell-based
[4] = Stability of the compound in aqueous DTT solution measured after 48 hrs; type: physicochemical; conditions: buffer
[5] = Hemolytic activity in rabbit erythrocytes assessed as hemoglobin release; type: ADME, cell-based, Oryctolagus cuniculus, Erythrocyte
[6] = Ratio of test compound t1/2 to Brevinin-1BYa t1/2 for alpha chymotrypsin (unknown origin)-mediated proteolysis measured for 24 hrs; type: ADME; conditions: human
[7] = test system: Huh-7; test: Anticancer activity against human Huh-7 cells assessed as cell growth inhibition by CCK8 assay; type: functional, cell-based
[8] = test system: A549; test: Anticancer activity against human A549 cells assessed as cell growth inhibition by CCK8 assay; type: functional, cell-based
[9] = Helicity of the compound in TFE aqueous solution by CD spectroscopy; type: physicochemical; conditions: buffer
[10] = test system: Huh-7; test: Potency index, ratio of Brevinin-1BYa IC50 to test compound IC50 for human Huh-7 cells by CCK8 assay; type: functional
[11] = Helicity of the compound in TFE aqueous solution by CD spectroscopy relative to Brevinin-1BYa; type: physicochemical; conditions: buffer
[12] = test system: LNCaP C4-2B; test: Potency index, ratio of Brevinin-1BYa IC50 to test compound IC50 for human LNCaP C4-2B cells by CCK8 assay; type: functional

Row | SMILES | half-life [1] [h] | half-life [2] [h] | IC50 [3] [µM] | Stabilty [4] | HC50 [5] [µM] | Ratio [6] | IC50 [7] [µM] | IC50 [8] [µM] | Activity [9] [%] | Ratio IC50 [10] | fold change (FC) [11] | Ratio IC50 [12]
1 | CC[C@H](C)[C@H](NC(=O)[C@H](CC(C)C)NC(=O)[C@H](C)NC(=O)[C@H](CO[C@@H]1O[C@H](CO)[C@@H](O)[C@H](O)[C@H]1NC(C)=O)NC(=O)[C@H](CC(C)C)NC(=O)[C@H](C)NC(=O)[C@H](C)NC(=O)[C@H](CCCCN)NC(=O)[C@H](Cc1ccccc1)NC(=O)CNC(=O)[C@@H]1CCCN1C(=O)[C@H](CCCCN)NC(=O)[C@H](CC(C)C)NC(=O)[C@H](Cc1ccccc1)NC(=O)[C@@H]1CSSC[C@H](N)C(=O)N[C@@H](CCCCN)C(=O)N[C@@H](CCCCN)C(=O)N[C@@H]([C@@H](C)O)C(=O)N[C@@H](C(C)C)C(=O)N[C@@H](CC(C)C)C(=O)N1)C(=O)N1CCC[C@H]1C(=O)N[C@@H](CC(C)C)C(=O)N[C@@H](Cc1ccccc1)C(=O)O (H-CKKTVLCFLKPGFKAALS(βGlcNAc)ALIPLF-OH; disulfide 1-7) | 4.32 | 3.31 | 18.7 | Unstable | > 100 | 1.66 | 39.6 | 32.6 |  |  |  | 
2 | CC[C@H](C)[C@H](NC(=O)[C@H](CC(C)C)NC(=O)[C@H](C)NC(=O)[C@H](CO)NC(=O)[C@H](CC(C)C)NC(=O)[C@H](C)NC(=O)[C@H](C)NC(=O)[C@H](CCCCN)NC(=O)[C@H](Cc1ccccc1)NC(=O)CNC(=O)[C@@H]1CCCN1C(=O)[C@H](CCCCN)NC(=O)[C@H](CC(C)C)NC(=O)[C@H](Cc1ccccc1)NC(=O)[C@@H]1Cn2cc(nn2)C[C@H](N)C(=O)N[C@@H](CCCCN)C(=O)N[C@@H](CCCCN)C(=O)N[C@@H]([C@@H](C)O)C(=O)N[C@@H](C(C)C)C(=O)N[C@@H](CC(C)C)C(=O)N1)C(=O)N1CCC[C@H]1C(=O)N[C@@H](CC(C)C)C(=O)N[C@@H](Cc1ccccc1)C(=O)O (H-[Pra]KKTVL[Dap(N3)]FLKPGFKAALSALIPLF-OH; triazole 1-7) | 2.93 | > 12 | 12.6 | Stable | 70.4 |  | 11.3 | 21.7 |  |  |  | 
3 | CC[C@H](C)[C@H](NC(=O)[C@H](CC(C)C)NC(=O)[C@H](C)NC(=O)[C@H](CO)NC(=O)[C@H](CC(C)C)NC(=O)[C@H](C)NC(=O)[C@H](C)NC(=O)[C@H](CCCCN)NC(=O)[C@H](Cc1ccccc1)NC(=O)CNC(=O)[C@@H]1CCCN1C(=O)[C@H](CCCCN)NC(=O)[C@H](CC(C)C)NC(=O)[C@H](Cc1ccccc1)NC(=O)[C@@H]1CNC(=O)C[C@H](N)C(=O)N[C@@H](CCCCN)C(=O)N[C@@H](CCCCN)C(=O)N[C@@H]([C@@H](C)O)C(=O)N[C@@H](C(C)C)C(=O)N[C@@H](CC(C)C)C(=O)N1)C(=O)N1CCC[C@H]1C(=O)N[C@@H](CC(C)C)C(=O)N[C@@H](Cc1ccccc1)C(=O)O (H-DKKTVL[Dap]FLKPGFKAALSALIPLF-OH; lactam 1-7) | 1.81 | > 12 | 16.8 | Stable | > 100 |  | 16.6 | 17.1 | 26.34 |  |  | 
4 | CC[C@H](C)[C@H](NC(=O)[C@H](CC(C)C)NC(=O)[C@H](C)NC(=O)[C@H](CO)NC(=O)[C@H](CC(C)C)NC(=O)[C@H](C)NC(=O)[C@H](C)NC(=O)[C@H](CCCCN)NC(=O)[C@H](Cc1ccccc1)NC(=O)CNC(=O)[C@@H]1CCCN1C(=O)[C@H](CCCCN)NC(=O)[C@H](CC(C)C)NC(=O)[C@H](Cc1ccccc1)NC(=O)[C@@H]1CSSC[C@H](N)C(=O)N[C@@H](CCCCN)C(=O)N[C@@H](CCCCN)C(=O)N[C@@H]([C@@H](C)O[C@@H]2O[C@H](CO)[C@@H](O)[C@H](O)[C@H]2NC(C)=O)C(=O)N[C@@H](C(C)C)C(=O)N[C@@H](CC(C)C)C(=O)N1)C(=O)N1CCC[C@H]1C(=O)N[C@@H](CC(C)C)C(=O)N[C@@H](Cc1ccccc1)C(=O)O (H-CKKT(βGlcNAc)VLCFLKPGFKAALSALIPLF-OH; disulfide 1-7) | 4.33 | 3.32 | 20.5 | Unstable | > 100 | 1.67 | 23.4 | 20.9 |  |  |  | 
5 | CC[C@H](C)[C@H](NC(=O)[C@H](CC(C)C)NC(=O)[C@H](C)NC(=O)[C@H](CO)NC(=O)[C@H](CC(C)C)NC(=O)[C@H](C)NC(=O)[C@H](C)NC(=O)[C@H](CCCCN)NC(=O)[C@H](Cc1ccccc1)NC(=O)CNC(=O)[C@@H]1CCCN1C(=O)[C@H](CCCCN)NC(=O)[C@H](CC(C)C)NC(=O)[C@H](Cc1ccccc1)NC(=O)[C@@H]1CCSC[C@H](N)C(=O)N[C@@H](CCCCN)C(=O)N[C@@H](CCCCN)C(=O)N[C@@H]([C@@H](C)O)C(=O)N[C@@H](C(C)C)C(=O)N[C@@H](CC(C)C)C(=O)N1)C(=O)N1CCC[C@H]1C(=O)N[C@@H](CC(C)C)C(=O)N[C@@H](Cc1ccccc1)C(=O)O (H-CKKTVL[Abu(4-yl)]FLKPGFKAALSALIPLF-OH; thioether 1-7) | 2.51 | > 12 | 9.23 | Stable | 70.4 |  | 10.8 | 11.2 | 83.65 | 1.38 | 2.7 | 1.5
6 | CC[C@H](C)[C@H](NC(=O)[C@H](CC(C)C)NC(=O)[C@H](C)NC(=O)[C@H](CO)NC(=O)[C@H](CC(C)C)NC(=O)[C@H](C)NC(=O)[C@H](C)NC(=O)[C@H](CCCCN)NC(=O)[C@H](Cc1ccccc1)NC(=O)CNC(=O)[C@@H]1CCCN1C(=O)[C@H](CCCCN)NC(=O)[C@H](CC(C)C)NC(=O)[C@H](Cc1ccccc1)NC(=O)[C@@H]1CSSC[C@H](N)C(=O)N[C@@H](CCCCN)C(=O)N[C@@H](CCCCN)C(=O)N[C@@H]([C@@H](C)O)C(=O)N[C@@H](C(C)C)C(=O)N[C@@H](CC(C)C)C(=O)N1)C(=O)N1CCC[C@H]1C(=O)N[C@@H](CC(C)C)C(=O)N[C@@H](Cc1ccccc1)C(=O)O (H-CKKTVLCFLKPGFKAALSALIPLF-OH; disulfide 1-7) | 1.62 | 3.35 | 14 | Unstable | 94.4 |  | 14.9 | 9.24 | 22.57 |  |  | 
